“Also recorded” adds a separate entry of the source.
How the values were obtained:
[1] = target: T1, full-length recombinant rat vitamin D receptor (Rattus norvegicus, UniProt P13053); assay: Vitamin D receptor binding, competition with [3H]-1,25(OH)2D3; settings: FIG. 1
T1 construct: Full-length recombinant rat receptor was expressed in E. coli BL21 (DE3) Codon Plus RIL cells; histidine tag (C); made in house; host or cells: E. coli BL21 (DE3) Codon Plus RIL
T1 sequence (P13053 1-423): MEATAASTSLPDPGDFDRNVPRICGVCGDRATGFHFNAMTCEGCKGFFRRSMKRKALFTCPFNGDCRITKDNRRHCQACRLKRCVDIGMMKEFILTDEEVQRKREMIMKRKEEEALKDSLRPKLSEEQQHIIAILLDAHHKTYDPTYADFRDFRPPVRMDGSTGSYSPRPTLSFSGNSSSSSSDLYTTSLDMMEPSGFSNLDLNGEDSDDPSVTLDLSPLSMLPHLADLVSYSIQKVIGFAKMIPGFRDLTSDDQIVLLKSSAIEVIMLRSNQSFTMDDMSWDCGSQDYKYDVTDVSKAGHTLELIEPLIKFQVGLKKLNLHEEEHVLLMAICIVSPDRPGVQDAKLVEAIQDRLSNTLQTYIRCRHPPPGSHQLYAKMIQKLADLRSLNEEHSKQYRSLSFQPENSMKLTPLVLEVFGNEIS
Text: Vitamin D Receptor Binding
Full-length recombinant rat receptor was expressed in E. coli BL21 (DE3) Codon Plus RIL cells and purified to homogeneity using two different column chromatography systems. The first system was a nickel affinity resin that utilizes the C-terminal histidine tag on this protein. The protein that was eluted from this resin was further purified using ion exchange chromatography (S-Sepharose Fast Flow). Aliquots of the purified protein were quick frozen in liquid nitrogen and stored at −80° C. until use. For use in binding assays, the protein was diluted in TEDK50 (50 mM Tris, 1.5 mM EDTA, pH 7.4, 5 mM DTT, 150 mM KCI) with 0.1% Chaps detergent. The receptor protein and ligand concentration was optimized such that no more than 20% of the added radiolabeled ligand was bound to the receptor.
Assay Conditions. Radiolabeled and unlabeled ligands were added to 100 mcl of the diluted protein at a final ethanol concentration of ≦10%, mixed and incubated overnight on ice to reach binding equilibrium. The following day, 100 mcl of hydroxylapatite slurry (50%) was added to each tube and mixed at 10-minute intervals for 30 minutes. The hydroxylapaptite was collected by centrifugation and then washed three times with Tris-EDTA buffer (50 mM Tris, 1.5 mM EDTA, phi 7.4) containing 0.5% Triton X-100. After the final wash, the pellets were transferred to scintillation vials containing 4 ml of Biosafe II scintillation cocktail, mixed and placed in a scintillation counter. Total binding was determined from the tubes containing only radiolabeled ligand.

[2] = test system: Human promyelocyte leukemia (HL60) cells; assay: HL-60 differentiation (nitro blue tetrazolium reduction); assay type: cell-based; settings: four days, FIG. 2
Method: The study drugs were dissolved in ethanol and the concentrations determined using UV spectrophotometry. Serial dilutions were prepared so that a range of drug concentrations could be tested without changing the final concentration of ethanol (≦0.2%) present in the cell cultures.
Human promyelocyte leukemia (HL60) cells were grown in RPMI-1640 medium containing 10% fetal bovine serum. The cells were incubated at 37° C. in the presence of 5% CO2.
HL60 cells were plated at 1.2×10^5 cells/ml. Eighteen hours after plating, cells in duplicate were treated with drug. Four days later, the cells were harvested and a nitro blue tetrazolium reduction assay was performed. (See Collins et al., 1979: J. Exp. Med. 149:969-974), The percentage of differentiated cells was determined by counting a total of 200 cells and recording the number that, contained intracellular black-blue formazan deposits. Verification of differentiation to monocytic cells was determined by measuring phagocytic activity.

[3] = test system: 24-hydroxylase (24 Ohase) gene promoter upstream of a luciferase reporter gene in ROS 1.7/2.8 (bone) cells; assay: In vitro transcription assay (luciferase reporter); assay type: cell-based; settings: 24-hydroxylase promoter luciferase, sixteen hours after dosing; FIG. 3; read-out: EC50, stimulation of gene transcription in bone cells
Method: In Vitro Transcription Assay.
Transcription activity was measured in ROS 1.7/2.8 (bone) cells that were stably transfected with a 24-hydroxylase (24 Ohase) gene promoter upstream of a luciferase reporter gene. (See Arbour et al., 1998). Cells were given a range of doses. Sixteen hours after dosing the cells were harvested and luciferase activities were measured using a luminometer. RLU=relative luciferase units.

[4] = test system: bone calcium mobilization; assay: Bone calcium mobilization (serum calcium) in vitamin D-deficient rats; assay type: in vivo, Sprague-Dawley rats; settings: low calcium diet (0.02%), ip once daily for 4 consecutive days, DA2HE up to 35100 pmol/day, FIG. 4
Text: (§1) Intestinal Calcium Transport and Bone Calcium Mobilization Male, weanling Sprague-Dawley rats were placed on Diet 11 (see Suda et al., J. Nutr. 100:1049, 1970) (0.47% Ca)+vitamins AEK for one week followed by Diet 11 (0.02% Ca)+vitamins AEK for 3 weeks. The rats were then switched to the same diet containing 0.47% Ca for one week followed by two weeks on the same diet containing 0.02% Ca. Dose administration began during the last week on 0.02% calcium diet. Four consecutive ip doses were given approximately 24 hours apart. Twenty-four hours after the last dose, blood was collected from the severed neck and the concentration of serum calcium determined by atomic absorption spectrometry as a measure of bone calcium mobilization. The first 10 cm of the intestine was also collected for intestinal calcium transport analysis using the everted gut sac method.

[5] = test system: intestinal calcium transport; assay: Intestinal calcium transport (everted gut sac) in vitamin D-deficient rats; assay type: in vivo, Sprague-Dawley rats; settings: 4 consecutive ip doses, FIG. 5
Text: as §1

| VDR binding activity relative to 1α,25-dihydroxyvitamin D3 ([1]; compared to natural hormone) | Ki ([1]; full-length recombinant rat vitamin D receptor, read-out: Ki, competition with [3H]-1,25(OH)2D3 for binding to VDR) [nM] | VDR binding activity relative to standard 1α,25-(OH)2D3, in log ([1]; less activity than standard) | EC50 ([2]; Homo sapiens, HL-60, 96 h) [nM] | SMILES | EC50 [3] [nM] | bone calcium mobilization activity (serum calcium) [4] | potency in promoting active calcium transport across the gut relative to 1α,25(OH)2D3 [5] | intestinal calcium transport activity ([5]; low calcium diet (0.02%), everted gut sac) | EC50 [2] [nM] |
| --- | --- | --- | --- | --- | --- | --- | --- | --- | --- |
| about 10 times less activity | 0.4 | about one | 300 | C[C@H](CCCC(C)(C)O)C1CCC2/C(=C/C=C(CCO)CCO)CCC[C@@]21C (some centres unmarked) [DA2HE, seco-A-2,19-dinor-1,25-dihydroxyvitamin D3] | 40 | lacks any bone calcium mobilization activity; also recorded: no mobilization of bone calcium | about 10 times less potent | relatively high intestinal calcium transport activity which increases in a dose dependent manner |  |
|  |  |  |  | C=C1/C(=C\C=C2/CCC[C@]3(C)[C@@H]([C@H](C)CCCC(C)(C)O)CC[C@@H]23)C[C@@H](O)C[C@@H]1O [1α,25-dihydroxyvitamin D3, reference compound] | 0.08 | increased serum calcium levels |  |  | 3 |

Source: US8785422B2, “A-ring modified 19-nor-vitamin D analogs and their uses” (Wisconsin Alumni Research Foundation, priority 2012, dated 2014)
